Experimental data taken from patent US20090247520A1, “INHIBITORS OF ANTIGEN RECEPTOR-INDUCED NF-kappa B ACTIVATION” (The Burnham Institute for Medical Research, priority 2008, published 2009).
Entries after “also recorded” stand apart in the source; their conditions may differ. Like-named read-outs stand apart in the source and are kept apart here.

Legend:
[1] = tested on: PDB-induced NF-κB reporter gene activity; assay: PDBu-induced NF-κB reporter gene activity in HEK293 cells; assay type: cell-based; conditions: Homo sapiens
Experimental: (§1) (A) Structures of two hit compounds, CID-2858522 (left) and CID-2998237 (right) are shown; (B, C) 293-NF-κB-luc cells were pretreated for 2 hrs with various concentration of either CID-2858522 (B) or CID-29982387 (C) and then stimulated with TNF (10 ng/mL) or PMA/lonomycin (10 ng/mL; 5 ng/mL) for 16 h. Luciferase activity was measured and data were expressed as a percentage relative to control treatment with DMSO only (mean±SD; n=3). (D) 293-NF-κB-luc cells were pretreated for 2 h with various concentrations of CID-2858522 or CID-2998237, then stimulated with PMA/lonomycin for 16 h. IL-8 release into the medium was measured, expressing data as a percentage relative to control cultures treated with DMSO (mean±SD; n=3). (E) 293-NF-κB-luc cells were pretreated with CID-2858522 and then stimulated with PDBu for 16 h, IL-8 production and NF-κB luciferase activity were measured as above. (F) 293-NF-κB-luc cells were pretreated for 2 h with various concentrations of CID-2858522 or a PKC inhibitor (Bisindolylmaleimide I) at 1 μM followed by PMA/Ionomycin (10 ng/mL) stimulation for 2 h, then p65-DNA-binding activity was measured in nuclear extracts (10 μg protein), expressing data as fold-increase relative to unstimulated cells (mean±SD; n=3).
HTS. […] Plates were analyzed within 30 seconds with a Criterion Analyst™ using the luminescence method (0.1 second read/well).

MDP (NOD2) induced IL-6 = assay: IL-6 in THP.1 cell cultures stimulated with MDP; assay type: cell-based; conditions: data not shown
Source text: (§2) FIG. 1 is a flow chart of screening and counter-screenings for selective inhibitors of antigen-receptor induced NF-κB pathway. A total of 114,889 compounds were screened. From a screen of 53,280 commercially available compounds (left column), 519 hits were obtained, of which 248 reconfirmed using the same primary screening assay. […] From these 11 active compounds, one hit, CID-2858522, inhibited PMA/Ionomycin-induced production of cytokine IL-8 by the HEK293 cell line. CID-2858522 was then characterized (right column). PDB was substituted for PMA to confirm suppression of an alternative PKC activator. Pathway selectivity was assessed using panels of cell lines, starting with HEK293 cells in which each of the remaining NF-κB activation pathways was stimulated, showing inhibition only of PMA/Ionomycin-induced NF-κB reporter gene activity (panel 1). […]

CLL B-cells = assay: Cytotoxicity in CLL B-cells by ATP levels; assay type: cell-based, human; conditions: time-frame analyzed
[2] = tested on: LPS (TLR4 agonist) induced IL-6 production; assay: IL-6 production by THP.1 monocytes stimulated with LPS; assay type: cell-based; conditions: listed as CID-2858522
Source text: as §2

[3] = tested on: TNF-induced NF-κB reporter gene activity; assay: TNF-induced NF-κB reporter counter-screen in HEK293-NFκB-Luc cells; assay type: cell-based; conditions: TNF 10 ng/mL; CID-2858522 at concentrations as high as 4 μM
Experimental: as §1
Counter Screening and Secondary Assays. […] Luciferase activity was measured using Britelite kit (Perkin Elmer). […]

SMILES: Cc1cc2nc(NCCCO)n(CC(=O)c3cc(C(C)(C)C)c(O)c(C(C)(C)C)c3)c2cc1C [Compound 1, 2-(2-(3-Hydroxypropylamino)-5,6-dimethyl-1H-benzo[d]imidazol-1-yl)-1-(3,5-di-tert-butyl-4-hydroxyphenyl)ethanone]
- IC50 ([1]; read-out: IC50, PDB-induced NF-κB reporter gene activity): 70 nM
- IC50 ([1]; read-out: IC50, PDBu-induced NF-κB reporter gene assay (cellular potency)): < 100 nM
- inhibition of MDP-induced NF-κB (IL-6 in THP.1) (MDP (NOD2) induced IL-6): failed to inhibit
- cytotoxicity in CLL B-cells (CLL B-cells): not due to cytotoxicity
- suppression of IL-6 production, LPS-stimulated THP.1 [2]: failed to inhibit; also recorded: did not suppress
- inhibition of TNF-induced NF-κB reporter gene activity [3]: did not inhibit
